Experimental data published in patent US11628146B2, “Estrogen receptor ligand treatment for neurodegenerative diseases” (The Regents of the University of California, priority 2014, dated 2023).
Entries after “also recorded” stand apart in the source; their conditions may differ.

Experiments:
EAE in NOD mice = experiment: Standard EAE clinical score (0-5 scale), MOG-induced EAE, NOD mice; type: in vivo, mouse; conditions: NOD females; DPN in miglyol vehicle; vs vehicle
From the text: (§1) Animals. C57BL/6 and NOD mice 8 weeks old were purchased from Jackson Laboratories (Bar Harbor, Me.). Animals were maintained under environmentally controlled conditions in a 12-hour light/dark cycle with access to food and water ad libitum. All procedures were done in accordance with the guidelines of the National Institutes of Health and the Chancellor's Animal Research Committee of the University of California, Los Angeles Office for the Protection of Research Subjects.
(§2) Reagents. AC-186 was dissolved in either Miglyol 812N liquid oil (Sasol North America) or sesame oil (Sigma Aldrich) as following concentration; 1.5 mg/mL for 3 mg/kg group, 5 mg/mL for 10 mg/kg group, and 15 mg/mL for 30 mg/kg group. Diarylpropionitrile (DPN, Tocris Biosciences) was dissolved in 10% molecular-grade ethanol and diluted with 90% of either Miglyol 812N liquid oil or sesame oil.
(§3) EAE and Treatments. Animals were injected subcutaneously with Myelin Oligodendrocyte Glycoprotein (MOG), amino acids 35-55 (200 μg/animal, American Peptides), emulsified in complete Freund's adjuvant (CFA) and supplemented with Mycobacterium tuberculosis H37ra (300 μg/animal, Difco Laboratories), over two sites drained by left inguinal and auxiliary lymph nodes in a total volume of 0.1 ml/mouse. One week later, a booster immunization was delivered over contra lateral lymph nodes. Pertussis toxin (500 ng/mouse) (List Biological Laboratories, Inc.) was injected intraperitoneally on days 0 and 2. Animals were monitored daily for EAE signs based on a standard EAE 0-5 scale scoring system: 0—healthy, 1—complete loss of tail tonicity, 2—loss of righting reflex, 3—partial paralysis, 4—complete paralysis of one or both hind limbs, and 5—moribund. Animals received 0.05 ml of either of 1.5, 5, 15 mg/mL AC-186, vehicle (sesame oil or Miglyol 812N liquid oil), or DPN (8 mg/kg/day) via subcutaneous injections every other day. Animals were treated with AC-186 or vehicle after EAE induction. Specifically, treatment was initiated at the first clear signs of clinical disease (EAE day 13-15), and continued to the endpoint of the experiment.

[1] = tested on: spinal cords of C57BL/6 females with EAE; conditions: DPN; previous experiments; cited from earlier work
[2] = Dissolution of the compound in the oil vehicle; type: physicochemical; conditions: DPN; needed ethanol first
Method: as §2
Three doses of the AC-186 compound were tested in C57BL6 female mice: low (3 mg/kg, every other day), medium (10 mg/kg, every other day), and high (30 mg/kg, every other day), each injected subcutaneously in a sesame oil vehicle. The ERβ ligand diarylpropionitrile (DPN) was tested as a positive control because DPN can partially ameliorate EAE and because the treatment effects in EAE experiments can vary based on the level of disease severity within an experiment. Direct comparisons between treatments were only made between treatment groups within a single EAE experiment and not between treatment groups of different EAE experiments. […] The difference in improvement between the 30 mg/kg AC-186 group and all other groups increased with time.

EAE in C57BL/6 mice [3] = experiment: Standard EAE clinical score (0-5 scale), MOG 35-55 induced EAE, C57BL/6 mice; type: in vivo, mouse
From the text: as §1, §2, §3

EAE in C57BL/6 mice [4] = conditions: DPN in Miglyol carrier; previous work; cited from earlier work
EAE in C57BL/6 mice [5] = experiment: Rotarod testing of motor coordination and balance in EAE, C57BL/6 mice; type: in vivo, mouse; conditions: DPN in 10% ethanol/miglyol vs miglyol vehicle (FIG. 4; strain not given)
Method: Rotarod Testing. Motor behavior was tested up to two times per week for each mouse using a rotarod apparatus (Med Associates Inc., St. Albans, Vt.). Briefly, animals were placed on a rotating horizontal cylinder for a maximum of 200 seconds. The amount of time the mouse remained walking on the cylinder, without falling, was recorded. Each mouse was tested on a speed of 3-30 rpm and given three trials for any given day. The three trials were averaged to report a single value for an individual mouse, and then averages were calculated for all animals within a given treatment group. The first two trial days prior to immunization (day 0), served as practice trials.

[6] = tested on: healthy female C57BL/6 mice (no EAE induced); experiment: Morris water maze (spatial memory) in ovariectomized mice; type: in vivo, mouse; conditions: for Morris water maze learning (time in target quadrant): ovariectomized, estriol-treated mice (OVX-Estriol) vs OVX-Placebo
Method: FIG. 25. Peripheral estrogens improve performance on the Morris water maze via ERβ expressed on neurons. Healthy female C57BL/6 (with no EAE induced) were tested for cognitive performance (spatial memory) using the Morris water maze, whereby mice learn to spend more time in a target quadrant (TQ) as compared to three other quadrants (OQ). […] (Bottom graph) To determine (a) whether ER beta is required for proper learning and, more specifically, (b) whether ER beta expression in neurons is required for learning, mice were generated that had ER beta conditionally knocked out using CreLox technology, with Cre driving the knock out in neurons via the neuron-specific enolase (NSE) promoter. […] (***p≤0.001, ANOVA-Sidak's posttest). […] The dashed line on the graphs indicates the time expected to be spent in a quadrant by random chance in the absence of learning (25%).

SMILES	EAE score (EAE in NOD mice)	CD45 staining in the CNS [1]	Iba-1 globoid cell staining [1]	Dissolution in sesame oil [2]	EAE score (EAE in C57BL/6 mice [3]; DPN in 10% ethanol/miglyol vs miglyol vehicle (FIG. 4; strain not given))	EAE score (EAE in C57BL/6 mice [3]; female C57BL/6, DPN in 10% ethanol in sesame oil)	EAE amelioration (EAE in C57BL/6 mice [4])	Rotarod times (EAE in C57BL/6 mice [5])	Morris water maze learning (% duration in target quadrant) ([6]; OVX-Estriol NSE-Cre:ERβ fl/fl mice (neuronal ER beta knockout), listed as Estriol)	Morris water maze learning (time in target quadrant) [6]	Morris water maze learning (time in target quadrant) ([6]; listed as Estriol)
N#CC(Cc1ccc(O)cc1)c1ccc(O)cc1 (centres unmarked) [DPN, Diarylpropionitrile, reference compound]	significantly ameliorated EAE; also recorded: better EAE scores	no significant effect on CD45 staining; also recorded: no effect on CD45 or Iba-1 globoid cell staining	no effect on CD45 or Iba-1 globoid cell staining	difficult to dissolve in sesame oil	protects against EAE better; also recorded: better EAE scores	not effective	ameliorated EAE	better performance with the rotarod test			
C[C@]12CC[C@@H]3c4ccc(O)cc4CC[C@H]3[C@@H]1C[C@@H](O)[C@@H]2O [estriol]									estrogen-mediated improvement is lost	ability to learn may be restored	improves performance
